Results from US20240148740A1, “COMBINATION OF AN AHR INHIBITOR WITH A PDX INHIBITOR OR DOXORUBICINE” (Ikena Oncology, Inc., priority 2020, published 2024).
Entries after “also recorded” stand apart in the source; their conditions may differ.

Legend:
[1] = Phase 1 study, safety of single agent dose escalation; assay type: in vivo; conditions: 200 mg, 400 mg, 800 mg, and 1200 mg QD, monotherapy, human patients
Excerpt: This is a first-in-human (FIH), open-label, multicenter, dose-escalation and expansion study to evaluate the safety, tolerability, PK, pharmacodynamics, and preliminary antitumor activity of Compound A administered orally (PO). There will be two arms: a single agent Compound A arm and a combination arm of Compound A with nivolumab in patients with advanced solid tumors and urothelial carcinoma. The Safety Review Committee (SRC) comprised of the enrolling study Investigators and the Sponsor will use the mTPI-2 design (Guo, 2017) and assess all safety data available to guide dose escalation and de-escalation decisions and subject enrollment for both arms. To assess evidence of preliminary antitumor activity in patients with urothelial carcinoma, a Simon 2-stage design (Simon, 1989) is used for both arms.
A baseline Screening period is followed by a by a Single-dose Run-in period (up to 7 days) to assess the PK of Compound A without food. The Single Agent treatment arm comprises daily oral administration of Compound A in the fed state. […]
Toxicity is evaluated according to National Cancer Institute Common Terminology Criteria for Adverse Events (AEs) (NCI-CTCAE) v5.0. […]

[2] = Nonclinical safety studies in monkeys (incl. 28-day GLP); assay type: in vivo, monkey
human T cells = test: Human T cell assays (summary); assay type: cell-based
Description: AHR plays a key role in immune cells and its' inhibition is proposed to reverse immune suppression and activate T cells. The ability of Compound A to inhibit AHR-dependent CYP1A1 expression and cytokine production was assessed in primary human T cells. AHR directly regulates the expression of the immune suppressive cytokine IL-22. Human T cells isolated from healthy donor PBMCs were activated with CD3/CD28 tetramer and incubated for 24 hours with Compound A. Cell pellets were processed for RNA isolation and CYP1A1 analysis by quantitative reverse-transcriptase polymerase chain reaction. For the cytokine analysis assay, CD3/CD28 activated T cells were treated with Compound A, and culture supernatants were collected after 48 hours for analysis of IL-22 levels using Meso Scale Discovery V-plex IL-22 plates. Compound A inhibited AHR-dependent gene expression in activated human T cells by decreasing expression of CYP1A1 in a concentration--dependent manner.

AHR = molecular target: T1, AHR (Homo sapiens, UniProt P35869); test: Phase 1 study, pharmacodynamic whole blood assay of AHR target genes; assay type: in vivo; conditions: all subjects in the 200 mg, 400 mg, and 800 mg cohorts
T1 sequence (P35869 11-848): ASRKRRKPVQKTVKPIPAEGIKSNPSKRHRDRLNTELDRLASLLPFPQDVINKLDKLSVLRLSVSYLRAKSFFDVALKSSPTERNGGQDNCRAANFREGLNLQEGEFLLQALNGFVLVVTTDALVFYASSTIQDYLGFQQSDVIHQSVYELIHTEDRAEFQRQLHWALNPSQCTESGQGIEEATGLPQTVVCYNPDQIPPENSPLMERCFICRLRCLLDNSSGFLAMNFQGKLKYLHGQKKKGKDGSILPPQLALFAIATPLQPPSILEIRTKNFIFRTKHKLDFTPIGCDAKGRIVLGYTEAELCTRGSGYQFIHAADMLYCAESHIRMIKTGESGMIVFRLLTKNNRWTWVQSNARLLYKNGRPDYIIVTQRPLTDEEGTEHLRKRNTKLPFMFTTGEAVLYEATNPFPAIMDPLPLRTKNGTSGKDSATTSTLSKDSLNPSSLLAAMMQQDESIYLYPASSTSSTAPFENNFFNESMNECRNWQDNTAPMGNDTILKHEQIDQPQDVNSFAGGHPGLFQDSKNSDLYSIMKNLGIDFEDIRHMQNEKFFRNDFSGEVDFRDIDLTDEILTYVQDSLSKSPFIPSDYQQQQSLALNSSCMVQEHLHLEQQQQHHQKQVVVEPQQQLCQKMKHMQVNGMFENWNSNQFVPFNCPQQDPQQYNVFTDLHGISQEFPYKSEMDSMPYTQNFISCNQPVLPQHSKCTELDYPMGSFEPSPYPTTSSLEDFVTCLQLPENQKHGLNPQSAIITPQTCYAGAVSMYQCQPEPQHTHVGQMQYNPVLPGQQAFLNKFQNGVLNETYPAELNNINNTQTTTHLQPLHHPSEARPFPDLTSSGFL
Excerpt: Because the starting dose and any higher dose of Compound A is expected to be near or at the pharmacologically active range, each subject is required to have blood drawn and tumor biopsies for secondary and exploratory pharmacodynamic endpoints. The blood and tumor tissue samples are used to confirm AHR target engagement. Individual subjects can be exempted from the tumor biopsy requirement upon discussion and prior agreement by the Sponsor. The initial sampling strategy is based on the predicted human pharmacodynamics of Compound A. If in the course of evaluating the pharmacodynamics, it is determined that an alternative sampling scheme would be more informative, then that alternative sampling scheme can be implemented if the total amount of blood, blood draws, and tumor biopsies obtained for pharmacodynamics is not increased. Moreover, the total number of samples can be decreased at any time if the initial sampling scheme is considered unnecessarily intensive.

[3] = Nonclinical safety: single-dose and repeated-dose toxicological studies; assay type: in vivo, rodent and non-rodent species; conditions: species not specified

## CC(C)c1cnn2c(N[C@@H]3CCc4[nH]c5ccccc5c4C3)nc(-c3cncc(F)c3)nc12 [Compound A, (R)—N-(2-(5-fluoropyridin-3-yl)-8-isopropylpyrazolo[1,5-a][1,3,5]triazin-4-yl)-2,3,4,9-tetrahydro-1H-carbazol-3-amine]
[1]
  serious adverse events (SAEs): no serious adverse events; also recorded: without any drug-related serious adverse events
[2]; monkey
  noteworthy findings (monkey): decreased thymus weights and cortical lymphocytes
[2]; monkeys
  QTc prolongation: up to 11%
Human T cells
  T cell state: induces an activated T cell state
  pro-inflammatory cytokines, such as IL-2 and IL-9: increase
AHR
  inhibition of expression of AHR target gene CYP1B1: Robust inhibition
[3]
  noteworthy findings: emesis, loose stool, dehydration, body weight loss
